Assay results from patent US6531612B2, “Nitrile derivatives that inhibit cathepsin K” (Hoffman-La Roche Inc., priority 1999, dated 2003).

How the values were obtained:
Assay type in all cases: biochemical
[1] = molecular target: Human recombinant cathepsin S (Homo sapiens, UniProt P25774); assay: cathepsin S inhibitory activity (fluorogenic substrate Z-Val-Val-Arg-MCA); conditions: room temperature, enzyme 0.5 nM, substrate 20 μM, pH 6.5
Description: (§1) The inhibitory activity of the compounds against cathepsin K, S, L and B was tested at room temperature in 96-wells opaque white polystyrene plates (Costar). The cathepsin K inhibitory activity was tested as follows:
(§2) 5 μl of an inhibitor diluted in 5 mM sodium phosphate, NaCl 15 mM pH 7.4 containing 1% DMSO (final concentrations: 10−0.0001 μM) were preincubated for 10 min with 35 μl of human recombinant cathepsin K (final concentration: 1 nM) diluted in assay buffer (100 mM sodium acetate pH 5.5 containing 5 mM EDTA and 20 mM cysteine). After addition of 10 μl of the fluorogenic substrate Z-Leu-Arg-MCA diluted in assay buffer (final concentration: 5 μM), increase of fluorescence (excitation at 390 nm and emission at 460 nm) was measured for 7.5 min every 45 sec. The initial velocity (RFU/min) was derived from the linear fit of the 11 reading points.
Cathepsin S inhibitory activity was assayed analogeously to the cathepsin K inhibitory activity, except that the buffer was 100 mM potassium phosphate, 5 mM EDTA, 5 mM DTT (freshly added), 0.01% Triton X-100, pH 6.5 and the fluorogenic substrate was Z-Val-Val-Arg-MCA (Bachem) (final concentration: 20 μM). Human recombinant cathepsin S (Wiederanders et al., Eur. J. Biochem. 1997, 250, 745-750) was used at a final concentration of 0.5 nM.
(§3) The results are given as IC50 values which denote the concentration of the inhibitor at which the enzymatic activity is inhibited by 50%. The IC50 values are determined from a linear regression curve from a logit-log plot.

human liver cathepsin L = molecular target: T1, human liver cathepsin L (Homo sapiens, UniProt P07711); assay: cathepsin L inhibitory activity; conditions: room temperature, enzyme 3 nM, substrate 5 μM, pH 5.5
T1 construct: using human liver cathepsin L (Calbiochem) at a final concentration of 3 nM; purchased Calbiochem; host or cells: human liver (tissue-derived)
Description: as §1, §2
The cathepsin L inhibitory activity was assayed under the same conditions as the cathepsin K inhibitory activity using human liver cathepsin L (Calbiochem) at a final concentration of 3 nM.
as §3

human liver cathepsin B = molecular target: T2, human liver cathepsin B (Homo sapiens, UniProt P07858); assay: cathepsin B inhibitory activity; conditions: room temperature, enzyme 1 nM, substrate 5 μM, pH 5.5
T2 construct: using human liver cathepsin B (Calbiochem) at a final concentration of 1 nM; purchased Calbiochem; host or cells: human liver (tissue-derived)
Description: as §1, §2
The cathepsin B inhibitory activity was assayed under the same conditions as the cathepsin K inhibitory activity using human liver cathepsin B (Calbiochem) at a final concentration of 1 nM.
as §3

[2] = molecular target: T3, human recombinant cathepsin K (Homo sapiens, UniProt P43235); assay: cathepsin K inhibitory activity (fluorogenic substrate Z-Leu-Arg-MCA); conditions: room temperature, enzyme 1 nM, substrate 5 μM, pH 5.5
T3 sequence (P43235 115-329): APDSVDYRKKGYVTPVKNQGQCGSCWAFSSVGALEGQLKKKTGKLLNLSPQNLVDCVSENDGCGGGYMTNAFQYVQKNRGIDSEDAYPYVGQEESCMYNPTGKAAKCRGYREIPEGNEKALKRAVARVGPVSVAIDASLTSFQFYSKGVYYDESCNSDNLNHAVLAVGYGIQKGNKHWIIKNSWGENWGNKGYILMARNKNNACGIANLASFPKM
Description: as §1, §2, §3

T1 sequence (P07711 114-333): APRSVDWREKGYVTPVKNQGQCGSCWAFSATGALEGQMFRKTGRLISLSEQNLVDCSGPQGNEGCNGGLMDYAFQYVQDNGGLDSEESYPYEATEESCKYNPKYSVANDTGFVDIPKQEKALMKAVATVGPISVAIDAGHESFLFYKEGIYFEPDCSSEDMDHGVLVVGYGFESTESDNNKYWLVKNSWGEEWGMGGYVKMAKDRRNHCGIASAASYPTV
Sequence of Human recombinant cathepsin S (P25774 115-331): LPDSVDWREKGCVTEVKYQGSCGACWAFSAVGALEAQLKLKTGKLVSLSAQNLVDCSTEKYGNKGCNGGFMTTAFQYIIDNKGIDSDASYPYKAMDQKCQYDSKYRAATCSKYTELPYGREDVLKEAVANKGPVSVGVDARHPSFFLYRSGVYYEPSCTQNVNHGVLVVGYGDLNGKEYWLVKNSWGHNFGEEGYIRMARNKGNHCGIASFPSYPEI

Row | IC50 [1] [nM] | IC50 (human liver cathepsin L) [nM] | IC50 (human liver cathepsin B) [nM] | IC50 [2] [nM] | SMILES
1 | > 10000 | 7000 | 2000 | 15 | N#CC(NC(=O)[C@@H]1CCCN1C(=O)Cc1cccc(Br)c1)c1ccc2c(c1)OCO2 (stereo partly drawn) [11.1, (S)-1-[2-(3-Bromo-phenyl)-ethanoyl]-pyrrolidine-2-carboxylic acid (1-benzo[1,3]dioxol-5-yl-1-cyano-methyl)-amide]
2 | > 10000 | > 10000 | 600 | 18 | COc1ccc(C(C#N)NC(=O)[C@@H]2CCCN2C(=O)Cc2cccc(Br)c2)cc1OC (stereo partly drawn) [11.2, (S)-1-[2-(3-Bromo-phenyl)-ethanoyl]-pyrrolidine-2-carboxylic acid [1-cyano-1-(3,4-dimethoxy-phenyl)-methyl]-amide]
3 | > 10000 | > 10000 | 4000 | 26 | N#CC(NC(=O)[C@@H]1CCCN1C(=O)Cc1ccc(Br)cc1)c1ccc2c(c1)OCO2 (stereo partly drawn) [11.10, (S)-1-[2-(4-Bromo-phenyl)-ethanoyl]-pyrrolidine-2-carboxylic acid (1-benzo[1,3]dioxol-5-yl-1-cyano-methyl)-amide]

More lines, now with the values behind:

Row | SMILES | IC50 [1] [nM] | IC50 (human liver cathepsin L) [nM] | IC50 (human liver cathepsin B) [nM] | IC50 [2] [nM]
4 | COc1cc(C(C#N)NC(=O)[C@@H]2CCCN2C(=O)OCc2ccccc2)ccc1OCc1ccccc1 (mixture of isomers) [10.28, (S)-2-{(R)- and (S)-[(4-Benzyloxy-3-methoxy-phenyl)-cyano-methyl]-carbamoyl}-pyrrolidine-1-carboxylic acid benzyl ester] | > 10000 | > 10000 | > 10000 | 45
5 | N#CC(NC(=O)[C@@H]1CCCN1C(=O)COCc1ccccc1)c1ccc2c(c1)OCO2 (mixture of isomers) [10.33, (S)-1-Benzyloxyacetyl-pyrrolidine-2-carboxylic acid ((R)- and (S)-benzo[1,3]dioxol-5-yl-cyano-methyl)-amide] | > 10000 | > 10000 | 2000 | 27
6 | Cc1ccccc1C(C#N)NC(=O)[C@@H]1CCCN1C(=O)OCc1ccccc1 (mixture of isomers) [10.20, (S)-2-[(R)- and (S)-(Cyano-o-tolyl-methyl)-carbamoyl]-pyrrolidine-1-carboxylic acid benzyl ester] | > 10000 | > 10000 | > 10000 | 26
7 | N#CC(NC(=O)[C@@H]1CCCN1C(=O)OCc1ccccc1)c1ccc2c(c1)OCO2 (mixture of isomers) [10.9, (S)-2-[(R)- and (S)-(Benzo[l,3]dioxol-5-yl-cyano-methyl)-carbamoyl]-pyrrolidine-1-carboxylic acid benzyl ester] | > 10000 | > 10000 | 9500 | 14
8 | N#CC(NC(=O)[C@@H]1CCCN1C(=O)OCc1ccccc1)c1cccc(Br)c1 (mixture of isomers) [10.22, (S)-2-{(R)- and (S)-[(3-Bromo-phenyl)-cyano-methyl]-carbamoyl}-pyrrolidine-1-carboxylic acid benzyl ester] | > 10000 | > 10000 | > 10000 | 16
9 | N#C[C@H](NC(=O)[C@@H]1CCCN1C(=O)OCc1ccccc1)c1ccccc1 [10.2, (S)-2-[(R)-(Cyano-phenyl-methyl)-carbamoyl]-pyrrolidine-1-carboxylic acid benzyl ester] | > 10000 | > 10000 | 2800 | 46
10 | COc1ccc(C(C#N)NC(=O)[C@@H]2[C@H](C)CCN2C(=O)OCc2ccccc2)cc1OC (mixture of isomers) [10.11, (2S,3R)-2-{(R)- and (S)-[Cyano-(3,4-dimethoxy-phenyl)-methyl]-carbamoyl}-3-methyl-pyrrolidine-1-carboxylic acid benzyl ester] | > 10000 | > 10000 | 600 | 68
11 | COc1ccc(C(C#N)NC(=O)[C@@H]2CCCN2C(=S)NCc2ccco2)cc1OC (mixture of isomers) [10.14, (S)-1-[(Furan-2-ylmethyl)-thiocarbamoyl]-pyrrolidine-2-carboxylic acid [(R)- and (S)-cyano-(3,4-dimethoxy-phenyl)-methyl]-amide] | > 10000 | > 10000 | 6200 | 64
12 | N#CC(NC(=O)[C@@H]1CCCN1C(=O)CCC1CCCC1)c1ccc2c(c1)OCO2 (mixture of isomers) [10.32, (S)-1-(3-Cyclopentyl-propionyl)-pyrrolidine-2-carboxylic acid ((R)- and (S)-benzo[l,3]dioxol-5-yl-cyano-methyl)-amide] | > 10000 | > 10000 | 600 | 37
